From ChEMBL document CHEMBL3091356, “Salen and tetrahydrosalen derivatives act as effective inhibitors of the tumor-associated carbonic anhydrase XII--a new scaffold for designing isoform-selective inhibitors” (Bioorg Med Chem Lett, 2013) come the findings set out here.

Molecules are shown by their SMILES.

One test addresses Carbonic anhydrase 12 (Homo sapiens, UniProt O43570). The experiment in a line: Inhibition of human recombinant carbonic anhydrase 12-mediated CO2 hydration preincubated for 15 mins by stopped-flow assay.
Another test addresses Carbonic anhydrase 9 (Homo sapiens, UniProt Q16790).
Another test addresses Carbonic anhydrase 2 (Homo sapiens, UniProt P00918). Kind of test: Inhibition of human recombinant carbonic anhydrase 2-mediated CO2 hydration preincubated for 15 mins by stopped-flow assay.
The next test concerns the target Carbonic anhydrase 1 (Homo sapiens, UniProt P00915). Kind of test: Inhibition of human recombinant carbonic anhydrase 1-mediated CO2 hydration preincubated for 15 mins by stopped-flow assay.

Sequence of Carbonic anhydrase 1 (P00915 whole entry): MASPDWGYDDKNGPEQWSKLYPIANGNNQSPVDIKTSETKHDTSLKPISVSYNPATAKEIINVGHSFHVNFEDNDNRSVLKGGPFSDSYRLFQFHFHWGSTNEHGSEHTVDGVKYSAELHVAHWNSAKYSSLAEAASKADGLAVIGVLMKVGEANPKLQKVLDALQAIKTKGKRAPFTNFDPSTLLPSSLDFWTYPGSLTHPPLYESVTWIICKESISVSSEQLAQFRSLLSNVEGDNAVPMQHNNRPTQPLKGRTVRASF
Sequence of Carbonic anhydrase 12 (O43570 whole entry): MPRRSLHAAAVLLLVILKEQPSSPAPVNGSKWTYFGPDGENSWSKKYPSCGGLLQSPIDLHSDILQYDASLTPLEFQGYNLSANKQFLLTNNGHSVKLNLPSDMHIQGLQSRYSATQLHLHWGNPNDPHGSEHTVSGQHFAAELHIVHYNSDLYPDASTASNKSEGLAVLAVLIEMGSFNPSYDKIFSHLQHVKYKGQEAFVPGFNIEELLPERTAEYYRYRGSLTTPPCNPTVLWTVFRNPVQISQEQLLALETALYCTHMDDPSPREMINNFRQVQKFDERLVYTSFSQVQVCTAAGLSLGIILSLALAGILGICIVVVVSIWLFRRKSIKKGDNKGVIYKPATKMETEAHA
Description for Carbonic anhydrase 9: Inhibition of human recombinant carbonic anhydrase 9-mediated CO2 hydration preincubated for 15 mins by stopped-flow assay

A word on the Ki: it is a measure of affinity in units of concentration, obtained from inhibition or displacement. As for `Oc1ccccc1CNCCCNCc1ccccc1O`, the Ki is 0.04 µM at Carbonic anhydrase 12, 3.37 µM at Carbonic anhydrase 9, 0.39 µM on Carbonic anhydrase 2 and over 100 µM at Carbonic anhydrase 1.
In the case of `O=[N+]([O-])c1ccccc1/C=N/CCCCCC/N=C/c1ccccc1[N+](=O)[O-]`, the Ki at Carbonic anhydrase 9, at Carbonic anhydrase 2 and on Carbonic anhydrase 1 was over 100 µM throughout.
Take `Oc1ccccc1CNCCCCNCc1ccccc1O`: the Ki on Carbonic anhydrase 9 was 4.37 µM; at Carbonic anhydrase 1, over 100 µM.
The like results for `Oc1ccccc1CNCCCCCNCc1ccccc1O` were, in that order, 4.19 µM and over 100 µM.
With `Oc1ccccc1CNc1ccccc1NCc1ccccc1O`, the values for the Ki at Carbonic anhydrase 9 and on Carbonic anhydrase 1 were 0.22 µM and over 100 µM, respectively.
For the compound `Oc1ccccc1/C=N/CCCC/N=C/c1ccccc1O`, the Ki on Carbonic anhydrase 1 is over 100 µM.
For `Oc1ccccc1CNCCCCCCNCc1ccccc1O`, the values for the Ki at Carbonic anhydrase 9 and on Carbonic anhydrase 1 were 2.51 µM and over 100 µM, respectively.
Consider `Oc1ccccc1/C=N/CCCCCC/N=C/c1ccccc1O`, for which the Ki at Carbonic anhydrase 12 is 0.43 µM; at Carbonic anhydrase 9 it was 4.35 µM; on Carbonic anhydrase 2 it was 3.6 µM; at Carbonic anhydrase 1 it was over 100 µM.
The like results for `Oc1ccccc1/C=N/CC/N=C/c1ccccc1O` were, in that order, 0.28 µM, over 100 µM, 1.72 µM and over 100 µM.
Turning to `Oc1ccccc1CNCCNCc1ccccc1O`, the Ki on Carbonic anhydrase 9 and on Carbonic anhydrase 1 was over 100 µM throughout.
Take `Oc1ccccc1/C=N/c1ccccc1/N=C/c1ccccc1O`: the Ki at Carbonic anhydrase 9 is 2.45 µM; at Carbonic anhydrase 1, over 100 µM.
The like results for `Oc1ccccc1/C=N/CCC/N=C/c1ccccc1O` were, in that order, 15.7 µM and over 100 µM.
In the case of `COc1cccc(/C=N/CC/N=C/c2cccc(OC)c2O)c1O`, the Ki at Carbonic anhydrase 9, on Carbonic anhydrase 2 and on Carbonic anhydrase 1 was over 100 µM throughout.
As to `Oc1ccccc1/C=N/CCCCC/N=C/c1ccccc1O`, the Ki at Carbonic anhydrase 9 was 4.47 µM; at Carbonic anhydrase 1, over 100 µM.
